This is an account of results in patent US9273017B2, “(Thio)morpholine derivatives as S1P modulators” (ABBVIE BAHAMAS LIMITED, priority 2009, dated 2016).

The target of one data set is T1, human S1P3 receptor (Homo sapiens, UniProt Q99500).
T1 construct: cell line established at Solvay Pharmaceuticals; host or cells: CHO K1 (CHO/Gα16/AEQ/h-S1P3)
As to the kind of experiment: In vitro functional activity (agonism), CHO-human-S1P3-Aequorin assay. It counts as cell-based. The conditions noted are these: read-out: S1P3 pEC50 (converted). The text has this:
In Vitro Functional Activity (Agonism) on Human S1P3 Receptors
The CHO-human-S1P3-Aeqorin assay (CHO/Gα16/AEQ/h-S1P3) was established at Solvay Pharmaceuticals. The plasmid DNA coding for the S1P3 receptor (accession number in GenBank NM_005226 was purchased from UMR cDNA resource Centre (Rolla, Mo.). The pcDNA3.1/hS1P3 construct carrying the mitochondrially targeted apo-Aeqorin and Gα16 protein was transfected in CHO K1 cell-line.
(§1) Human-S1P3-Aequorin cells express mitochondrial targeted apo-Aequorin. Cells have to be loaded with coelanterazine, in order to reconstitute active Aequorin. After binding of agonists to the human S1P3 receptor the intracellular calcium concentration increases and binding of calcium to the apo-Aequorin/coelenterazine complex leads to an oxidation reaction of coelenterazine, which results in the production of apo-Aequorin, coelenteramide, CO2 and light (λmax 469 nm). This luminescent response is dependent on the agonist concentration. Luminescence is measured using the MicroBeta Jet (Perkin Elmer). Agonistic effects of compounds are expressed as pEC50. Compounds were tested at a 10 points half log concentration range, and 3 independent experiments were performed in single point's measurements.

The next data set has as its target T2, human S1P1 (Homo sapiens, UniProt P21453).
T2 construct: host or cells: CHO-K1
Kind of data set: In vitro functional activity (agonism), CHO-K1-human S1P1 cAMP assay. The format is cell-based. The conditions noted are these: read-out: S1P1 pEC50 (converted). On the procedure:
In Vitro Functional Activity (Agonism) on Human S1P1 Receptors
The CHO-K1-Human S1P1-c-AMP assay was performed at Euroscreenfast, Brussels (Euroscreen, Human S1P1 coupling Gi/o), (Edg1) receptor, catalog no: FAST-0197C, December 2009).
Recombinant CHO-K1 cells expressing human S1P1, grown to mid-log Phase in culture media without antibiotics, detached, centrifuged and re-suspended. For agonist testing cells are mixed with compound and Forskolin and incubated at room temperature. Cells are lyses and cAMP concentration are estimated, according to the manufacturer specification, With the HTRF kit from CIS-BIO International (cat no 62AM2PEB).
Agonistic effects of compounds are expressed as a percentage of the activity of the reference compound at its EC100 concentration, EC50) is calculated and results are reported as pEC50. Compounds were tested at a 10 points half log concentration range duplicated in 1 experiment.

Another data set has as its target T3, human S1P5 receptor (Homo sapiens, UniProt Q9H228).
T3 construct: host or cells: CHO (AequoScreen recombinant cell line, co-expressing mitochondrially targeted apo-aequorin)
As to the kind of experiment: In vitro functional activity (agonism), CHO-human-S1P5-Aequorin assay. The conditions noted are these: read-out: S1P5 pEC50 (converted). It counts as cell-based.
Text: In Vitro Functional Activity (Agonism) on Human S1P5 Receptors
as §1, with “The CHO-human-S1P5-Aeqorin assay was bought from Euroscreen, Brussels (Euroscreen, Technical dossier, Human Lysophospholid S1P5 (Edg8) receptor, DNA clone and CHO AequoScreen™ recombinant cell-line, catalog no: ES-593-A, September 2006). Human-S1P5-Aequorin” for “Human-S1P3-Aequorin”, “S1P5” for “S1P3”

The test system of a further data set is C57BL/6J mice. As to the kind of experiment: In vivo therapeutic model; T-maze spontaneous alternation. As to conditions: 12-month old male C57BL6J mice; 10 mg/kg/day p.o. for 21 days and on test day at t=-30 min. On the procedure:
FIG. 1 Percentage of alternation of young and old C57BL/6J male mice in the T-maze with either vehicle (control groups) or compound 34b (10 mg/kg; p.o.)
In Vivo Therapeutic Model; T-Maze
Age-related memory deficits occur in humans and rodents. Spontaneous alternation is the innate tendency of rodents to alternate free choices in a T-maze over a series of successive runs. This sequential procedure relies on working memory and is sensitive to various pharmacological manipulations affecting memory processes (Aging and the physiology of spatial memory. Barnes C. A. Neurobiol. Aging 1988:563-8; Dember W N, Fowler H. Spontaneous alternation behavior. Psychol. Bull. 1958, 55(6):412-427; Gerlai R. A new continuous alternation task in T-maze detects hippocampal dysfunction in mice. A strain comparison and lesion study. Behav Brain Res 1998 95(1):91-101).
For this study, male C57BL/6J mice of 2 months or 12 months old were used in the spontaneous alternation task in the T-maze. In short, mice were subjected to 1 session containing 15 trials, consisting of 1 “forced-choice” trial, followed by 14 “free-choice” trials. The animal was considered as entering one of the arms of the maze when all four paws are placed within this arm. […] The percentage of alternation over the 14 free-choice trials was determined for each mouse and was used as an index of working memory performance. […]

Molecules are shown by their SMILES. Where a name gives a salt, the structure may show the parent alone.

T3 sequence (Q9H228 whole entry): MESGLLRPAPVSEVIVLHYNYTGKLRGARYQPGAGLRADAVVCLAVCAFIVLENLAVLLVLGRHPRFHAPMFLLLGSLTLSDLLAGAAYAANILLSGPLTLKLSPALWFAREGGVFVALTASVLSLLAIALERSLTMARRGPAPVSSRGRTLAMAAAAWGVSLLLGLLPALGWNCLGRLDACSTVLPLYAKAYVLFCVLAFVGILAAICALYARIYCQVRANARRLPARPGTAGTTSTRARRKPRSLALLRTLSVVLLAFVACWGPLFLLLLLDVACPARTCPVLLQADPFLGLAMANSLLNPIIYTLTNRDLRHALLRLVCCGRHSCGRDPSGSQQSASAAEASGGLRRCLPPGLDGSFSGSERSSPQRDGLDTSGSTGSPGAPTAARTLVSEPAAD
T1 sequence (Q99500 whole entry): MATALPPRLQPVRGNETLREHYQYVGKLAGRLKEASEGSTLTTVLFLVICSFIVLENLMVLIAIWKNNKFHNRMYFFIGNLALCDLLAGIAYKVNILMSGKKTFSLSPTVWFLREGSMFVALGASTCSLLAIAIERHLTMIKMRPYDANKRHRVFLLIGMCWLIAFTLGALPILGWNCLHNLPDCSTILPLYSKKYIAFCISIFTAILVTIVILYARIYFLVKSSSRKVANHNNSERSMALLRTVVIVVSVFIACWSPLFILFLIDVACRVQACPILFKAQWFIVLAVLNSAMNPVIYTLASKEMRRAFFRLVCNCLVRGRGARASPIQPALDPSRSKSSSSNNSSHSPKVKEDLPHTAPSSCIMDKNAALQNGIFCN
T2 sequence (P21453 whole entry): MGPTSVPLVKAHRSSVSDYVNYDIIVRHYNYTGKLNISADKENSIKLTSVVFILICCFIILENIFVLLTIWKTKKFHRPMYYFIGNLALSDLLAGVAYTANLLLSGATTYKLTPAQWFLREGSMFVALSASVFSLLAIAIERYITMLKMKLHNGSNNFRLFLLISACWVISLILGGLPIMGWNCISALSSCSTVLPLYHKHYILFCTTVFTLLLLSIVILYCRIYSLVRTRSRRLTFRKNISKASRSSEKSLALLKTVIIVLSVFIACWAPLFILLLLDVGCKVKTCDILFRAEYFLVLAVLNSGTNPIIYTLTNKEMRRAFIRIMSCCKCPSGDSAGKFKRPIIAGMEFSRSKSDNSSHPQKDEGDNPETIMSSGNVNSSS

Regarding `Cl.O=C(O)CCN1CCOC(c2ccc(OCc3c(Cl)cccc3Cl)cc2F)C1` (centres unmarked) [Compound 179, 3-{2-[4-(2,6-Dichloro-benzyloxy)-2-fluoro-phenyl]-morpholin-4-yl}-propionic acid hydrochloride], the melting point is 174.5 to 178 °C. Further, the EC50 at human S1P3 receptor was above 10 µM. For the same compound, the EC50 on human S1P1 is above 3.16 µM. The EC50 on human S1P5 receptor is 0.126 µM.
In the same order, the values of `CCCCCCCCOc1ccc(C2CN(CCC(=O)O)CCO2)c(C(F)(F)F)c1.Cl` (centres unmarked) [Compound 189, 3-[2-(4-Octyloxy-2-trifluoromethyl-phenyl)-morpholin-4-yl]-propionic acid hydrochloride] are 178.5 to 180.5 °C, 1.58 µM, 1.58 µM and 0.158 µM.
For the compound `Cl.O=C(O)CCN1CCOC(c2ccc(OCc3c(Cl)cccc3Cl)cc2)C1` (single isomer, unassigned; (-)) [Compound 34b, (−)-3-{2-[4-(2,6-Dichloro-benzyloxy)-phenyl]-morpholin-4-yl}-propionic acid hydrochloride], the “reversal of the age-related cognitive decline (percentage of alternation in T-maze)” value in the data set on C57BL/6J mice came to 100%. Also, the EC50 at human S1P1 is above 3.16 µM; at human S1P5 receptor it was 0.0316 µM.
Turning to `Clc1cccc(Cl)c1COc1ccc(C2CN(CCc3nn[nH]n3)CCO2)cc1` (centres unmarked) [Compound 228, 2-[4-(2,6-Dichloro-benzyloxy)-phenyl]-4-[2-(2H-tetrazol-5-yl)-ethyl]-morpholine hydrochloride], the EC50 on human S1P3 receptor is above 10 µM; at human S1P1, above 3.16 µM; at human S1P5 receptor, 0.158 µM.
